Source: a melting point compilation (Tetko et al.; mined from patent text by program, amines drawn as free bases though some values may be those of a salt)

First: COC(=O)c1ccc(-c2nnc(-c3ccc(C(C)C)cc3)s2)cc1
Second: COC(=O)c1ccc(OCC(O)COc2ccc(Cl)cc2)cc1 (stereo not drawn)
The melting point of the first is higher: 147 to 151 °C for the first, 88 to 90 °C for the second.

First: N#Cc1csc2c1CCN(C(=O)C(F)(F)F)CC2c1ccccc1 (stereo not drawn)
Second: CCNc1cc2c(cc1Cl)CCN(C)C[C@@H]2c1ccccc1
The melting point of the first is lower: 107 °C for the first, 120 to 121 °C for the second.

Compared with `CCOCC(O)(c1cccnc1)C(C)c1ccc(Cl)cc1Cl` (stereo not drawn), `CCOC(=O)c1nn(-c2ccccc2)c(=O)c2c1c1ccc(Cl)cc1n2C` is higher in melting point: 86 °C for the first, 216 to 218 °C for the second.

First: O=c1c2c(c3cccnc3n1-c1ccccc1)CCCC2
Second: O=C1OC(CN2CCC3(CC2)C(=O)NCN3c2ccccc2)CN1c1ccccc1 (stereo not drawn)
The melting point of the first is lower: 160 to 162 °C for the first, 166 to 168 °C for the second.

First: CC(=O)NCc1c(C)cc(CN2CCN(c3ccc(F)cc3)CC2)cc1C
Second: CC(=O)N1CCCN(NC(=O)c2ccc(F)cc2)CC1
The melting point of the first is higher: 163 to 164 °C for the first, 117 to 119 °C for the second.

First: O=C(Nc1ccc2cc(CN3CCCCC3)ccc2c1)c1ccc(-c2ccc(F)cc2)nc1
Second: Cc1cc(CNC2CCCN(C(=O)c3ccc(Nc4nccc(Nc5ccc(F)cc5)n4)cc3)C2)no1 (stereo not drawn)
The melting point of the first is higher: 218 to 219 °C for the first, 190 to 191 °C for the second.

First: O=C1N(N2CCCCC2)c2ccccc2C1(Cc1ccncc1)Cc1ccncc1
Second: O=C(O)C1(S(=O)(=O)c2ccc(Oc3ccc(Cl)cc3)cc2)CCN(Cc2ccccc2)CC1
The melting point of the first is lower: 140 to 143 °C for the first, 201 °C for the second.

Compared with `COc1cc2cc(F)cnc2cc1F`, `Cn1cnc2c(N)cc(Br)cc21` is higher in melting point: 98 °C for the first, 170 °C for the second.

Going from `N=c1sc2cc(OC(F)(F)F)ccc2n1CCS` to `Cc1c(C=O)nc(-c2ccc(C(F)(F)F)cc2)n1C`, the melting point rises from 110 °C to 144 °C.

First: CC(C)COc1ccccc1-c1ncc(C(N)=O)c(=O)[nH]1
Second: CCOC(=O)CCC1(c2c[nH]cn2)Cc2ccccc2C1=O (stereo not drawn)
The melting point of the first is higher: 230 to 231 °C for the first, 162 to 165 °C for the second.

First: CC(C)n1c(=O)nc(-c2ccc3c(c2)CCC3)c2cc3c(cc21)OCO3
Second: Cc1cccc(C2=NCSC2(c2ccnc(C)c2)N2CCOC2=O)c1 (stereo not drawn)
The melting point of the first is lower: 73 to 75 °C for the first, 80 to 82 °C for the second.

Compared with `NC(=O)CCCCCOc1cc2ccc(-c3ccc(C(=O)O)cc3)cc2cc1C12CC3CC(CC(C3)C1)C2`, `CC(C)c1ccc(N2C(=O)CN(c3cccc(C(=O)O)c3)C2=O)cc1` is higher in melting point: 209 to 210 °C for the first, 249 to 252 °C for the second.

First: CNC(=O)C(Cc1c[nH]c2ccccc12)NC(=O)C(C)(CC(C)C)c1ccc(Cl)cc1S (stereo not drawn)
Second: O=c1[nH]c2ccccc2c(=O)c2cc(Cl)ccc12
The melting point of the first is lower: 75 to 78 °C for the first, 290 to 295 °C for the second.

First: CN(CCc1c[nH]c2ccccc12)C(=O)CCCC(=O)O
Second: Cc1[nH]c2ccccc2c1C(=O)CCn1ccnc1
The melting point of the first is lower: 125 to 126 °C for the first, 196 to 197 °C for the second.

First: CCN(CC(C)C)c1c(C(O)C#Cc2ccc(C(=O)O)cc2)cccc1C(C)(C)C (stereo not drawn)
Second: C#CC#Cc1ccc(C(=O)O)cc1
The melting point of the first is lower: 117 °C for the first, > 230 °C for the second.

First: COCc1c(O)ccc2c1CCCC2=O
Second: CC1CC(=O)c2cc(OCc3ccccc3)cnc2C1 (stereo not drawn)
The melting point of the first is higher: 142 to 143 °C for the first, 80.5 to 81.5 °C for the second.

First: CC(C)(C)OC(=O)N1C(=O)O[C@@H](c2cccc(Cl)c2)[C@H]1Cc1ccc(CC(F)(F)C(F)(F)F)cc1 (racemic)
Second: Cc1ccccc1Cn1c(=O)on(C(=O)N(c2ccc(Cl)cc2)C(C)C)c1=O
The melting point of the first is higher: 136 to 138 °C for the first, 90 to 91 °C for the second.

First: CC(C)COc1c(-c2ccc(S(C)(=O)=O)cc2)cnn(CC(F)(F)F)c1=O
Second: Cc1ccc(-c2c(C#N)n(C)c(=O)c3cnccc23)cc1
The melting point of the first is lower: 108 to 110 °C for the first, 201 to 202 °C for the second.

Compared with `CCC(=O)c1cc(C)nc2c1c(C)nn2-c1c(C)cc(C)cc1C`, `COc1ccc(S(=O)(=O)N(Cc2ccccc2)c2c(C(=O)O)cnc3c2c(C)nn3C)cc1` is higher in melting point: 117 to 118 °C for the first, 165 to 167 °C for the second.

First: CCOC(=O)c1cnc(CCOC)nc1NCc1ccc(-c2ccccc2-c2nnnn2C(c2ccccc2)(c2ccccc2)c2ccccc2)cc1
Second: c1ccc(C(Cc2nc(COc3ccc(CCCn4ccnc4)cc3)co2)c2ccccc2)cc1
The melting point of the first is higher: 128 to 130 °C for the first, 79 to 80 °C for the second.

First: CCCCc1nc2ccn(CC#N)c(=O)c2n1Cc1ccc(-c2ccccc2C#N)cc1
Second: Cc1ccccc1-c1cc(F)c2ncc(C(=O)NCc3ccc(Cl)cc3)c(O)c2c1
The melting point of the first is lower: 64 °C for the first, 259 to 265 °C for the second.

First: CCC1CCN(Cc2ccc(COc3cccc4c3CN(C3CCC(=O)NC3=O)C4=O)cc2)CC1 (stereo not drawn)
Second: O=C1CCC(N2Cc3c(OCc4ccc(CNC5CCOCC5)cc4)cccc3C2=O)C(=O)N1 (stereo not drawn)
The melting point of the first is lower: 180 to 182 °C for the first, 231 to 233 °C for the second.

First: Cc1nc(Cc2ccccc2)c2c(c1O)COC2
Second: Cc1c(Cc2ccccc2)oc2cc(O)c(O)cc12
The melting point of the first is higher: 212 to 214 °C for the first, 95.5 to 98 °C for the second.

Compared with `Cc1cc(C2=C(C=CC3CC(O)CC(=O)O3)C(C)(C)CC(N3CCCC3)C2)ccc1F` (stereo not drawn), `Fc1ccc(Nc2ncnc3cnc(N4CCC(N5CCOCC5)CC4)nc23)cc1Cl` is higher in melting point: 120 to 123 °C for the first, 222 to 224 °C for the second.

Compared with `O=C(/C=C/c1ccc(C(F)(F)F)cc1Br)Nc1ccc2[nH]ccc2c1`, `CC(C)c1cc(CO)cc(C(C)C)c1NC(=O)CN1CCN(CCSc2nc3cccc(C(F)(F)F)c3o2)CC1` is lower in melting point: 205 to 207 °C for the first, 146 to 148 °C for the second.

Compared with `Cc1[nH]c2ccnn2c(=O)c1CCO`, `Cc1cnc2n1-c1sc(CCCO)cc1C(c1ccccc1Cl)=NC2` is lower in melting point: 225 to 226 °C for the first, 131 to 134 °C for the second.

Compared with `CCCCCCN(O)C(=O)N(C)C`, `CCCc1[nH]c(C(=O)OCC)c(C)c1CCC(=O)OCC` is higher in melting point: 19 to 20 °C for the first, 61.5 to 63.5 °C for the second.

Compared with `NC(=S)N(N)Cc1cccc(Cl)c1`, `CCC(=O)CCc1ccc(OC)c(S(N)(=O)=O)c1` is lower in melting point: 153 to 158 °C for the first, 135 to 138 °C for the second.

First: CC(=O)OCc1cc(=O)n2ccsc2n1
Second: CCOC(=O)CCNC(=O)Oc1c(C)n(C)ccc1=O
The melting point of the first is lower: 144 to 145 °C for the first, 171 to 173 °C for the second.

First: Clc1cnc2c(COCn3cncn3)c(Cl)ccc2c1
Second: CN(C)c1nc(NS(=O)(=O)c2ccc(N)cc2)cc(N2CCC2)n1
The melting point of the first is lower: 156 to 158 °C for the first, 239 to 240 °C for the second.

Compared with `CS(=O)(=O)NCCCCCC1CCSS1` (stereo not drawn), `COc1cc(OC)nc(C(CC(=O)C(C)(C)C)C(=O)NS(C)(=O)=O)n1` (stereo not drawn) is higher in melting point: 43 to 46 °C for the first, 97 to 98 °C for the second.

First: Cc1cccc(C)c1/N=C1\SCC(=O)N1N
Second: C=C1CC(c2ccc(C)c(C)c2)N(C)C1=O (stereo not drawn)
The melting point of the first is lower: 149 to 152 °C for the first, 180 to 184 °C for the second.

First: COC[C@H]1CN(c2ccc(OCCC3(O)CCCCC3)cc2)C(=O)O1
Second: COc1ccc(C2(/C=C/c3cccc(C#N)c3)CCC(=O)CC2)cc1OC1CCCC1
The melting point of the first is lower: 87 °C for the first, 116 to 117 °C for the second.

Compared with `O=C1c2ccccc2C(=O)N1[C@@H]1C=CCC[C@@H]1O` (racemic), `O=c1ccccn1[C@@H]1c2ccccc2OCC[C@H]1O` (relative stereo) is higher in melting point: 112 to 114 °C for the first, 232 to 234 °C for the second.

First: O=C1N(CCCCN2CCN(c3n[nH]c4cc(F)ccc34)CC2)CSC12CCCCC2
Second: CN(C(=O)OCc1ccccc1)C1CCN(CC2(C)Cn3cc([N+](=O)[O-])nc3O2)CC1 (stereo not drawn)
The melting point of the first is higher: 163 to 165 °C for the first, 139 °C for the second.

First: CC1(C)Oc2ccc(C#N)cc2[C@H](N(Cc2ccco2)c2ncco2)[C@H]1O
Second: Cc1nc(S(=O)(=O)n2ccc(/C=C/C(=O)NO)c2)cn1C
The melting point of the first is lower: 63 °C for the first, 190 to 194 °C for the second.

With `CC(C)(C)OC(=O)[C@@H]1CCC(=O)N1` the melting point was 91 to 92 °C.
